The term Ki denotes a dissociation constant, usually derived from enzyme kinetics or from competition with a known ligand. The low end stands for higher affinity, the high end for lower affinity.

Molecules are shown by their SMILES.

Here are results for 2 molecules from article PMC9272005, “Genome-Wide Expression Analysis of Glyoxalase I Genes Under Hyperosmotic Stress and Existence of a Stress-Responsive Mitochondrial Glyoxalase I Activity in Durum Wheat (Triticum durum Desf.)” (Frontiers in Plant Science, 2022).

The target in this assay is T1, DWM-GLYI (mitochondrial glyoxalase I).
T1 construct: native activity in Triton X-100-lysed purified mitochondria; isoform not identified
The experiment in a line: spectrophotometric GLYI activity assay ([…] nm) in lysed mitochondria, inhibition kinetics. The class given is biochemical, Triticum turgidum subsp. durum.

Molecule `COc1cc(/C=C/C(=O)CC(=O)/C=C/c2ccc(O)c(OC)c2)ccc1O` [curcumin] came in with an inhibitory constant (Ki) of 20 ± 3.5 µM.
On to `O=c1c(O)c(-c2ccc(O)c(O)c2)oc2cc(O)cc(O)c12` [quercetin], for which the affinity, expressed as Ki, was 55 ± 7.5 µM.
